In this assay the target is recombinant human AKR1C3 (Homo sapiens (Human), UniProt P42330). Kind of assay: AKR1C3-inhibitory activity assay (Coumberone to Coumberol fluorescence). It counts as biochemical. To be noted: recombinant human AKR1C3, 15 min pre-incubation, 10 μM NADPH, 0.3 μM Coumberone. On the procedure:
The AKR1C3-inhibitory activity of the substances of the present invention was measured in the AKR1C3 assay described in the paragraphs below.
Essentially, the enzyme activity is measured by quantification of the generation of Coumberol from Coumberone (Halim et al. J. AM. CHEM. SOC. 2008, 130:14123-14128 and Yee et al. Proc. Natl. Acad. Sci. USA 2006, 103:13304-13309). In this test, the increase of the highly fluorescent Coumberol by NADPH—(nicotinamide adenine dinucleotide phosphate)-dependent reduction of the non-fluorescent Coumberone by AKR1C3 was determined.
The enzyme used was recombinant human AKR1C3 (Aldo-keto reductase family 1 member C3; GenBank Accession No. NM_003739). This was expressed in E. coli as GST (glutathione S transferase) fusion protein and purified by glutathione Sepharose affinity chromatography. The GST was removed by digestion with thrombin and subsequent size exclusion chromatography (Dufort, I., Rheault, P., Huang, X F., Soucy, P., and Luu-The, V., Endocrinology 140, 568-574 (1999)).
For the assay, 50 nl of a 100-fold concentrated solution of the test substance in DMSO were pipetted into a black low-volume 384-well microtiter plate (Greiner Bio-One, Frickenhausen, Germany), 2.5 μl of a solution of AKR1C3 in assay buffer [50 mM potassium phosphate buffer pH 7, 1 mM DTT, 0.0022% (w/v) Pluronic F-127, 0.01% BSA (w/v) and protease inhibitor cocktail (Complete, EDTA-free Protease Inhibitor Cocktail from Roche)] were added and the mixture was incubated for 15 min to allow pre-binding of the substances to the enzyme prior to the enzyme reaction. The enzyme reaction was then started by addition of 2.5 μl of a solution of NADPH (20 μM→final concentration in 5 μl of assay volume is 10 μM) and Coumberone (0.6 μM→final concentration in 5 μl of assay volume is 0.3 μM) in assay buffer, and the resulting mixture was incubated at 22° C. for the reaction time of typically 90 min. The concentration of the AKR1C3 and the reaction time was adapted to the respective activity of the enzyme preparation and adjusted such that the assay was carried out in the linear range. Typical AKR1C3 concentrations were in the region of 1 nM. The reaction was stopped by addition of 2.5 μl of a stop solution consisting of 3 μM EM-1404 as inhibitor (U.S. Pat. No. 6,541,463) in 50 mM HEPES pH7.5 (3 μM EM-1404→final concentration in 7.5 μl of assay volume is 1 μM). The fluorescence of the Coumberole was then measured at 520 nm (excitation at 380 nm) using a suitable measuring instrument (Pherastar from BMG Labtechnologies). The intensity of the fluorescence was used as a measure of the amount of Coumberole formed and thus of the enzyme activity of AKR1C3. The data were normalized (enzyme reaction without inhibitor=0% inhibition; all other assay components, but no enzyme=100% inhibition).

Chain of recombinant human AKR1C3 (P42330 whole entry): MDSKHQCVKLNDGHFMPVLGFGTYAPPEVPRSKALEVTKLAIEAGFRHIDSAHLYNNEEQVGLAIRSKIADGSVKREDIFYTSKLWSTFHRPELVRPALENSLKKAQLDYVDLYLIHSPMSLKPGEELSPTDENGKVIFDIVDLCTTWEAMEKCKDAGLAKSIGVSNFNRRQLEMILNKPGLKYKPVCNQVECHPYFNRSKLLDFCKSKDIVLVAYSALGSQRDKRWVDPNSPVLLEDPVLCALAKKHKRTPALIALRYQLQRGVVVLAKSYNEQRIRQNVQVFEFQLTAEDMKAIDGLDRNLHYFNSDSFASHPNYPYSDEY

For `O=C(c1c[nH]nn1)N1CC2CCC(C1)N2S(=O)(=O)c1ccccc1` [Example 1, [8-(phenylsulfonyl)-3,8-diazabicyclo[3.2.1]oct-3-yl](1H-1,2,3-triazol-4-yl)methanone], the IC50 (usually the concentration that inhibits the measured activity by half) was 3.7 nM.

As for `O=C(c1c[nH]nn1)N1CC2CCC(C1)N2S(=O)(=O)c1ccccc1C(F)(F)F` [Example 2, 1H-1,2,3-triazol-4-yl[8-{[2-(trifluoromethyl)phenyl]sulfonyl}-3,8-diazabicyclo[3.2.1]oct-3-yl]methanone], the IC50 worked out at 1 nM. For `O=C(c1cnn[nH]1)N1CC2CCC(C1)N2S(=O)(=O)c1cc(F)cc(F)c1` [Example 3, {8-[(3,5-difluorophenyl)sulfonyl]-3,8-diazabicyclo[3.2.1]oct-3-yl}(1H-1,2,3-triazol-5-yl)methanone] the value was 1.4 nM; for `O=C(c1cnn[nH]1)N1CC2CCC(C1)N2S(=O)(=O)c1cccc(F)c1` [Example 4, {8-[(3-fluorophenyl)sulfonyl]-3,8-diazabicyclo[3.2.1]oct-3-yl}(1H-1,2,3-triazol-5-yl)methanone], 1.2 nM; for `O=C(c1cnn[nH]1)N1CC2CCC(C1)N2S(=O)(=O)c1cccc(Cl)c1` [Example 5, {8-[(3-chlorophenyl)sulfonyl]-3,8-diazabicyclo[3.2.1]oct-3-yl}(1H-1,2,3-triazol-4-yl)methanone], 1.2 nM. Turning to `Cc1ccccc1S(=O)(=O)N1C2CCC1CN(C(=O)c1cnn[nH]1)C2` [Example 6, {8-[(2-methylphenyl)sulfonyl]-3,8-diazabicyclo[3.2.1]oct-3-yl}(1H-1,2,3-triazol-4-yl)methanone], the half-inhibitory concentration (IC50) turned out to be 1.7 nM. Turning to `O=C(c1c[nH]nn1)N1CC2CCC(C1)N2S(=O)(=O)c1cccc(S(F)(F)(F)(F)F)c1` [Example 8, [8-{[3-(pentafluoro-lambda^6-sulfanyl)phenyl]sulfonyl}-3,8-diazabicyclo[3.2.1]oct-3-yl](1H-1,2,3-triazol-4-yl)methanone], the IC50 turned out to be 1.3 nM. Turning to `O=C(c1c[nH]nn1)N1CC2CCC(C1)N2S(=O)(=O)c1cc(Cl)cc(Cl)c1` [Example 9, {8-[(3,5-dichlorophenyl)sulfonyl]-3,8-diazabicyclo[3.2.1]oct-3-yl}(1H-1,2,3-triazol-4-yl)methanone], the IC50 was determined as 0.9 nM. For `O=C(c1c[nH]nn1)N1CC2CCC(C1)N2S(=O)(=O)c1cc(C(F)(F)F)cc(C(F)(F)F)c1` [Example 10] the value was 7.3 nM; for `O=C(c1c[nH]nn1)N1CC2CCC(C1)N2S(=O)(=O)c1ccc(Cl)s1` [Example 11, {8-[(5-chlorothiophen-2-yl)sulfonyl]-3,8-diazabicyclo[3.2.1]oct-3-yl}(1H-1,2,3-triazol-4-yl)methanone], 1.1 nM.

Consider `O=C(c1c[nH]nn1)N1CC2CCC(C1)N2S(=O)(=O)c1cc(F)ccc1F` [Example 12, {8-[(2,5-difluorophenyl)sulfonyl]-3,8-diazabicyclo[3.2.1]oct-3-yl}(1H-1,2,3-triazol-4-yl)methanone], for which the IC50 is 1.1 nM.

For `Cc1cccc(S(=O)(=O)N2C3CCC2CN(C(=O)c2cnn[nH]2)C3)c1` [Example 13, {8-[(3-methylphenyl)sulfonyl]-3,8-diazabicyclo[3.2.1]oct-3-yl}(1H-1,2,3-triazol-5-yl)methanone], the IC50 was determined as 1.4 nM. For `Cc1ccc(S(=O)(=O)N2C3CCC2CN(C(=O)c2cnn[nH]2)C3)cc1` [Example 14, {8-[(4-methylphenyl)sulfonyl]-3,8-diazabicyclo[3.2.1]oct-3-yl}(1H-1,2,3-triazol-5-yl)methanone] the value was 1.9 nM. Consider `O=C(c1cnn[nH]1)N1CC2CCC(C1)N2S(=O)(=O)c1ccccc1F` [Example 15, {8-[(2-fluorophenyl)sulfonyl]-3,8-diazabicyclo[3.2.1]oct-3-yl}(1H-1,2,3-triazol-5-yl)methanone], for which the IC50 came to 1.5 nM. For `O=C(c1cnn[nH]1)N1CC2CCC(C1)N2S(=O)(=O)c1ccc(F)cc1` [Example 16, {8-[(4-fluorophenyl)sulfonyl]-3,8-diazabicyclo[3.2.1]oct-3-yl}(1H-1,2,3-triazol-5-yl)methanone] the value was 2.2 nM; for `N#Cc1cccc(S(=O)(=O)N2C3CCC2CN(C(=O)c2cnn[nH]2)C3)c1` [Example 17, 3-{[3-(1H-1,2,3-triazol-5-ylcarbonyl)-3,8-diazabicyclo[3.2.1]oct-8-yl]sulfonyl}benzonitrile], 2.9 nM; for `Cc1cc(C)cc(S(=O)(=O)N2C3CCC2CN(C(=O)c2cnn[nH]2)C3)c1` [Example 18, {8-[(3,5-dimethylphenyl)sulfonyl]-3,8-diazabicyclo[3.2.1]oct-3-yl}(1H-1,2,3-triazol-5-yl)methanone], 1 nM. For `Cc1ccc(C)c(S(=O)(=O)N2C3CCC2CN(C(=O)c2cnn[nH]2)C3)c1` [Example 19, {8-[(2,5-dimethylphenyl)sulfonyl]-3,8-diazabicyclo[3.2.1]oct-3-yl}(1H-1,2,3-triazol-5-yl)methanone] the value was 1.1 nM; for `COc1cccc(S(=O)(=O)N2C3CCC2CN(C(=O)c2cnn[nH]2)C3)c1` [Example 20, {8-[(3-methoxyphenyl)sulfonyl]-3,8-diazabicyclo[3.2.1]oct-3-yl}(1H-1,2,3-triazol-5-yl)methanone], 1 nM; for `COc1ccc(S(=O)(=O)N2C3CCC2CN(C(=O)c2cnn[nH]2)C3)cc1` [Example 21, {8-[(4-methoxyphenyl)sulfonyl]-3,8-diazabicyclo[3.2.1]oct-3-yl}(1H-1,2,3-triazol-5-yl)methanone], 2 nM. For `O=C(c1cnn[nH]1)N1CC2CCC(C1)N2S(=O)(=O)c1ccc(Cl)cc1` [Example 22, {8-[(4-chlorophenyl)sulfonyl]-3,8-diazabicyclo[3.2.1]oct-3-yl}(1H-1,2,3-triazol-5-yl)methanone] the value was 1.5 nM. With `O=C(c1cnn[nH]1)N1CC2CCC(C1)N2S(=O)(=O)c1ccc(F)c(F)c1` [Example 23, {8-[(3,4-difluorophenyl)sulfonyl]-3,8-diazabicyclo[3.2.1]oct-3-yl}(1H-1,2,3-triazol-5-yl)methanone], the IC50 amounted to 2.2 nM.

For `O=C(c1cnn[nH]1)N1CC2CCC(C1)N2S(=O)(=O)c1c(F)cccc1F` [Example 24, {8-[(2,6-difluorophenyl)sulfonyl]-3,8-diazabicyclo[3.2.1]oct-3-yl}(1H-1,2,3-triazol-5-yl)methanone], the IC50 stood at 1.8 nM. For `O=C(c1cnn[nH]1)N1CC2CCC(C1)N2S(=O)(=O)c1ccc(F)cc1F` [Example 25, {8-[(2,4-difluorophenyl)sulfonyl]-3,8-diazabicyclo[3.2.1]oct-3-yl}(1H-1,2,3-triazol-5-yl)methanone] the value was 2.6 nM; for `Cc1c(Cl)cccc1S(=O)(=O)N1C2CCC1CN(C(=O)c1cnn[nH]1)C2` [Example 26, {8-[(3-chloro-2-methylphenyl)sulfonyl]-3,8-diazabicyclo[3.2.1]oct-3-yl}(1H-1,2,3-triazol-5-yl)methanone], 1.1 nM. For `O=C(c1cnn[nH]1)N1CC2CCC(C1)N2S(=O)(=O)c1cccc(Cl)c1F` [Example 27, {8-[(3-chloro-2-fluorophenyl)sulfonyl]-3,8-diazabicyclo[3.2.1]oct-3-yl}(1H-1,2,3-triazol-5-yl)methanone] the value was 0.9 nM. For `O=C(c1cnn[nH]1)N1CC2CCC(C1)N2S(=O)(=O)c1ccc(F)c(Cl)c1` [Example 28, {8-[(3-chloro-4-fluorophenyl)sulfonyl]-3,8-diazabicyclo[3.2.1]oct-3-yl}(1H-1,2,3-triazol-5-yl)methanone] the value was 1.2 nM; for `O=C(c1cnn[nH]1)N1CC2CCC(C1)N2S(=O)(=O)c1cccc(C(F)(F)F)c1` [Example 29, 1H-1,2,3-triazol-5-yl[8-{[3-(trifluoromethyl)phenyl]sulfonyl}-3,8-diazabicyclo[3.2.1]oct-3-yl]methanone], 0.9 nM; for `O=C(c1cnn[nH]1)N1CC2CCC(C1)N2S(=O)(=O)c1cc(Cl)ccc1Cl` [Example 30, {8-[(2,5-dichlorophenyl)sulfonyl]-3,8-diazabicyclo[3.2.1]oct-3-yl}(1H-1,2,3-triazol-5-yl)methanone], 0.6 nM.

The record behind these values is patent publication US10167293B2, “[8-(phenylsulfonyl)-3,8-diazabicyclo[3.2.1]oct-3-yl](1H-1,2,3-triazol-4-yl)methanones” (BAYER PHARMA AKTIENGESELLSCHAFT, priority 2016, dated 2019).
